One may read the IC50 as the concentration that gives 50% inhibition. Low values mean higher potency, high ones lower potency.

This passage reports IC50 results from ChEMBL document CHEMBL1126920, “Design and synthesis of an orally active macrocyclic neutral endopeptidase 24.11 inhibitor” (J Med Chem, 1993).

The target of the assay is T1, Neprilysin (Rattus norvegicus, UniProt P07861).
T1 sequence (P07861 whole entry): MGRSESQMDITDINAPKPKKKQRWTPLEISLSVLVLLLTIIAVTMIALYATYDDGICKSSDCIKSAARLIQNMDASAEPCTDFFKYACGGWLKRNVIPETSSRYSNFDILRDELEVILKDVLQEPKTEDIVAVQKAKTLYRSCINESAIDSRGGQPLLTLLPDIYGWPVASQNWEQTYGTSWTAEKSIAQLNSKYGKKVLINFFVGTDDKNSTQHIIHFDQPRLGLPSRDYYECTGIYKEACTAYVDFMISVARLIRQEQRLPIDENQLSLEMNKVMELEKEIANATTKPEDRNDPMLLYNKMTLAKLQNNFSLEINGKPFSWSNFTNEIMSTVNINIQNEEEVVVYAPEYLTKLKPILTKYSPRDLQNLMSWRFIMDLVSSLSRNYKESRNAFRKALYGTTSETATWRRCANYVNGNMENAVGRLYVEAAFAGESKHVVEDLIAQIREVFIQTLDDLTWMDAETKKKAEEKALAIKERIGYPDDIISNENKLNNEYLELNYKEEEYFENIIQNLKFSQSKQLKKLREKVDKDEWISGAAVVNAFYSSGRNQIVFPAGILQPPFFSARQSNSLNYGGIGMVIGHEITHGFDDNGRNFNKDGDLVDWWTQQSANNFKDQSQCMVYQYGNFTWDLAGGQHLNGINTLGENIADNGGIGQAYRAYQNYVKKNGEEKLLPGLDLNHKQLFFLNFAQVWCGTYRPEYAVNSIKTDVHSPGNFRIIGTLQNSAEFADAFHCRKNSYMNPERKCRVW
Briefly: Inhibition of NEP 24.11 from rat kidney. Type of assay: tissue-based.
`O=C1NC(C(=O)Nc2ccccc2)CCCCCCC1CS` (configuration not stated) came in with an IC50 of 551 nM.
Take `O=C1NC(C(=O)Nc2cccnc2)CCCCCCC1CS` (configuration not stated): half-maximal inhibition (IC50) required 59 nM.
Compound `O=C1NC(C(=O)N[C@H](CO)C(=O)O)CCCCCCC1CS` (some centres not stated) showed an IC50 of 11 nM.
As for `O=C1NC(C(=O)O)CCCCCCC1CS` (racemic), the figure is 4 nM; as for `O=C1NC(C(=O)N2CCC[C@H]2C(=O)O)CCCCCCC1CS` (some centres not stated), 2 nM.
As for `O=C1NC(C(=O)O)CCCCCCC1CS` (single isomer, unassigned; (+)), the figure is 3 nM; as for `O=C1NC(C(=O)N2C[C@H](O)C[C@H]2C(=O)O)CCCCCCC1CS` (single isomer, unassigned; (-)), 0.8 nM; as for `O=C1NC(C(=O)O)CCCCCCC1CS` (single isomer, unassigned; (-)), over 1000 nM.
For the compound `NCCCC[C@@H](NC(=O)C1CCCCCCC(CS)C(=O)N1)C(=O)O` (some centres not stated), the IC50 amounted to 14 nM.
In turn, `CS(=O)(=O)CCCNC(=O)C1CCCCCCC(CS)C(=O)N1` (configuration not stated) returned an IC50 of 63 nM.
Then `O=C1NC(C(=O)NCCOCCO)CCCCCCC1CS` (configuration not stated), with 84 nM; and `O=C1NC(C(=O)NCCCO)CCCCCCC1CS` (configuration not stated), with 209 nM.
